Reference: patent US10960015B2, “Effervescent formulation based on pyridoxal-5-phosphate” (Assistance Publique-Hopitaux De Paris, priority 2015, dated 2021)

Experiments:
Format in all cases: physicochemical
[1] = Funnel flow (Erweka flow tester, PE 2.9.16); conditions: standardized funnel; 100 g raw materials, 20 g mixtures
Description: (§1) A. Funnel Flow and Angle of Repose (PE 2.9.16-2.9.36)
(§2) The tests were performed on an Erweka® flow tester on all of the raw materials and mixtures tested using a standardized funnel. The tests performed on the raw materials were carried out on 100 g of powder, and on 20 g for mixtures (batches A, F, G, H, I, J).

[2] = Laser diffraction granulometry (dry mode, Mastersizer S)
Description: Laser Diffraction Granulometry (European Pharmacopeia (PE), Current Edition, 2.9.31)
Analysis of the granulometric distribution was performed in dry mode on a Mastersizer S laser granulometer (Malvern®). The detection range of this instrument in dry mode is from 0.05 μm to 900 μm. This study was performed on 20 g of active principle, at a pressure of 1, 2 and 3 bar. Each test was performed 3 times for each pressure.

[3] = Tapped density (volumenometer, PE 2.9.34); conditions: after tamping; for Hausner ratio: criterion <1.20; for Carr index: criterion <20%
Description: B. Tapped Density (PE 2.9.34)
The tests were performed on a volumenometer (Erweka® GmbH SVM12). The Carr and Hausner indices can be determined by this test. The tests performed on the raw materials were carried out on 100 g of powder, and on 20 g for mixtures (batches A, F, G, H, I, J).

[4] = Angle of repose (PE 2.9.36); conditions: mixing time 5 minutes
Description: as §1, §2
Determination of the angle of repose was performed on the powders alone and on the mixtures, as defined in the European Pharmacopeia. Different mixing times of 5, 10 and 30 minutes were tested on the mixtures (batches of F to J) to determine the influence of the mixing time on the flow (Table IV).

Cc1ncc(COP(=O)(O)O)c(C=O)c1O [Batch A, Pyridoxal-5-phosphate]
Flow [1]: no flow | d50 ([2]; dry mode): 11 μm | particle size ([2]; dry mode, 1, 2 and 3 bar): below 100 μm

OC[C@H]1O[C@@](CO)(O[C@H]2O[C@H](CO)[C@@H](O)[C@H](O)[C@H]2O)[C@@H](O)[C@@H]1O [Batch D, Sucrose]
Flow [1]: 22 s | Carr index, interpretation [3]: Excellent | Compactibility (V10-V500) [3]: 3 mL | Hausner ratio, interpretation [3]: Excellent | Hausner ratio [3]: 1.10 | Carr index [3]: 8.70% | Angle of repose [4]: 40.5° | Angle of repose, Interpretation [4]: Quite

OC[C@@H](O)[C@@H](O)[C@H](O)[C@@H](O)CO [Batch E, Sorbitol]
Flow [1]: 9.6 s | Carr index, interpretation [3]: Excellent | Compactibility (V10-V500) [3]: 9 mL | Hausner ratio, interpretation [3]: Excellent | Hausner ratio [3]: 1.10 | Carr index [3]: 9.05% | Angle of repose [4]: 43.6° | Angle of repose, Interpretation [4]: Passable

OC[C@@H](O)[C@@H](O)[C@H](O)[C@H](O)CO [Batch Q, Mannitol]
Flow [1]: 27.1 s | Carr index, interpretation [3]: Excellent | Compactibility (V10-V500) [3]: 0 mL | Hausner ratio, interpretation [3]: Excellent | Hausner ratio [3]: 1.02 | Carr index [3]: 7.48% | Angle of repose [4]: 38.3° | Angle of repose, Interpretation [4]: Quite

Isomalt [Batch C]
Flow [1]: 23.8 s | Carr index, interpretation [3]: Good | Compactibility (V10-V500) [3]: 8 mL | Hausner ratio, interpretation [3]: Good | Hausner ratio [3]: 1.13 | Carr index [3]: 11.25% | Angle of repose [4]: 45° | Angle of repose, Interpretation [4]: Passable
